Reference: US5352804A, “Isolation and structure of Halistatin 2” (Arizona Board of Regents, a body corporate, acting on …, priority 1993, dated 1994)
Entries after “also recorded” stand apart in the source; their conditions may differ. Read-outs that look alike come from different tables or passages of the source.

How the values were obtained:
[1] = tested on: ACHN; experiment: NCI human tumor in vitro primary screen; assay type: cell-based; details: renal cancer
From the text: (§1) Only two hundred years ago, many diseases ravaged humankind. Many of these diseases now have been controlled or eradicated. In the development of the means to treat or control these diseases, work with the appropriate common experimental animals was of critical importance. With the various types of cancers, and with the HIV virus, such work is presently ongoing. The research for the treatment of various types of cancer is coordinated in the United States by the National Cancer Institute (NCI). NCI, as a government entity, has been charged with assisting anti-cancer research. To establish whether a substance has anti cancer activity, NCI has established a variety of protocols, one of which involves testing the candidate substance against a cell line panel containing 60 human tumor cell lines. This protocol has been verified and is generally accepted throughout the scientific community. This protocol and the established statistical means of evaluating the results obtained therefrom have been fully described in the literature. See Principles & Practice of Oncology PPO Updates, Volume 3, Number 10, Oct. 1989, by Michael R. Boyd, M.D., Ph.D., for an indepth description of the test protocol. The statistical analysis is explained in "Display and Analysis of Patterns of Differential Activity of Drugs Against Human Tumor Cell Lines: Development of Means Graph and COMPARE Algorithm" Journal of the National Cancer Institute Reports Vol. 81, No. 14, Pg. 1088, Jul. 14, 1989, by K. D. Paull et al. Both of these references are incorporated herein by this reference thereto.
(§2) Biological Testing; Data Display and Analysis; Screening Data Summary. Freshly isolated halistatin 2 was tested in the NCI's human tumor, disease-oriented in vitro primary screen, and data calculations performed. Table 3 is a composite prepared from mean graphs constructed from the averaged GI50 values from quadruplicate screenings of Halistatin 2.

[2] = tested on: HOP-62; experiment: NCI human tumor in vitro primary screen; assay type: cell-based; details: non-small cell lung cancer
From the text: as §1, §2

[3] = tested on: HOP-92; experiment: NCI human tumor in vitro primary screen; assay type: cell-based; details: non-small cell lung cancer
From the text: as §1, §2

[4] = tested on: IGROV-1; experiment: NCI human tumor in vitro primary screen; assay type: cell-based
From the text: as §1, §2

[5] = tested on: NCI-H522; experiment: NCI human tumor in vitro primary screen; assay type: cell-based
From the text: as §1, §2

[6] = tested on: SF-268; experiment: NCI human tumor in vitro primary screen; assay type: cell-based; details: CNS cancer
From the text: as §1, §2

[7] = tested on: SK-MEL-28; experiment: NCI human tumor in vitro primary screen; assay type: cell-based; details: melanoma
From the text: as §1, §2

[8] = tested on: NCI-H322M; experiment: cells; assay type: cell-based; details: Homo sapiens
[9] = tested on: human tumor cell lines; experiment: cells; assay type: cell-based
[10] = tested on: L1210 murine leukemia cells; experiment: cytotoxicity in L1210 murine leukemia cells; assay type: cell-based
[11] = tested on: L1210 murine leukemia cells; experiment: mitotic index (accumulation of cells arrested in mitosis); assay type: cell-based; details: at cytotoxic concentrations
[12] = tested on: tubulin; experiment: glutamate-induced polymerization of purified tubulin; assay type: biochemical
Protocol: Halistatin 2 was evaluated to determine if it was an antimitotic agent which interfered with the polymerization of purified tubulin and microtubule assembly dependent on microtubule-associated proteins isolated.
(§3) For radiolabeled GTP binding to tubulin, the same drug concentrations inhibited the reaction by 17% and 51% with halistatin 2.

[13] = tested on: tubulin; experiment: binding of radiolabeled vinblastine to tubulin
[14] = tested on: tubulin; experiment: radiolabeled GTP binding to tubulin / nucleotide exchange on tubulin
From the text: as §3

[15] = tested on: P388 lymphocytic leukemia; experiment: P388 lymphocytic leukemia in vivo (NCI protocol); details: 40 μg/kg host body weight, BDF mice
Protocol: When BDF, mice were treated with 40 μg/kg host body weight of halistatin 2.

[16] = read-out: Log10 GI50 (converted)
[17] = read-out: Log10 TGI (converted)
[18] = read-out: averaged negative log10 GI50 (converted)

Structure (SMILES): C=C1CC2CCC34CC5OC6C(O3)C3OC(CCC3OC6(O)C5O4)CC(=O)OC3C(CC4OC(CCC1O2)CC(C)C4=C)OC1CC2OC4(CC2OC1C3C)CC1OC2(CC(C)C3OC5CC(C(O)CO)OC5CC3O2)CC(C)C1O4 (stereo not drawn) [halistatin 2]
- GI50 [1, 16]: 4.37 nM
- IC (TGI) [1, 17]: 10 nM
- GI50 [1, 18]: 4.37 nM
- GI50 [2, 16]: 0.692 nM
- IC (TGI) [2, 17]: 7.59 nM
- GI50 [2, 18]: 0.692 nM
- GI50 [3, 16]: 1.2 nM
- IC (TGI) [3, 17]: 10 nM
- GI50 [3, 18]: 1.2 nM
- GI50 ([4]; IGROV1, ovarian cancer, read-out: Log10 GI50 (converted)): 0.891 nM
- IC (TGI) ([4]; IGROV1, ovarian cancer, read-out: Log10 TGI (converted)): 10 nM
- GI50 ([4]; ovarian cancer, read-out: averaged negative log10 GI50 (converted)): 0.891 nM
- GI50 ([5]; NCl-H522, non-small cell lung cancer, read-out: Log10 GI50 (converted)): 0.2 nM
- IC (TGI) ([5]; NCl-H522, non-small cell lung cancer, read-out: Log10 TGI (converted)): 0.55 nM
- GI50 ([5]; non-small cell lung cancer, read-out: averaged negative log10 GI50 (converted)): 0.2 nM
- GI50 [6, 16]: 1.82 nM
- IC (TGI) [6, 17]: 10 nM
- GI50 [6, 18]: 1.82 nM
- GI50 [7, 16]: 1 nM
- IC (TGI) [7, 17]: 10 nM
- GI50 [7, 18]: 1 nM
- GI50 [8, 16]: 3.02 nM
- IC (TGI) ([8]; read-out: Log10 TGI): 10 nM
- GI50 [8, 18]: 3.02 nM
- potency [9]: especially noteworthy
- screening profile [9]: characteristic of a general mechanistic class of tubulin-interactive antimitotics
- GI50 ([9]; Homo sapiens): ~0.7 nM
- cytotoxicity (in words) [10]: significant cytotoxicity
- IC50 ([10]; Mus musculus): 0.4 nM
- mitotic arrest / rise in mitotic index (in words) [11]: caused a significant rise in the mitotic index; also recorded: caused the accumulation of cells arrested in mitosis
- mitotic index [11]: ≤ 20%
- inhibition of tubulin polymerization (in words) [12]: inhibited tubulin polymerization
- IC50 ([12]; purified tubulin): 4900 ± 500 nM
- inhibition of radiolabeled vinblastine binding to tubulin (in words) [13]: inhibited the binding of radiolabeled vinblastine and GTP to tubulin
- type of inhibition of vinblastine binding (in words) [13]: noncompetitive inhibitor
- inhibition of radiolabeled vinblastine binding to tubulin ([13]; 5 μM): 51%
- inhibition of radiolabeled vinblastine binding to tubulin ([13]; 10 μM): 75%
- inhibition of nucleotide exchange on tubulin (in words) [14]: inhibit nucleotide exchange on tubulin
- inhibition of radiolabeled GTP binding to tubulin (in words) [14]: inhibited the binding of radiolabeled vinblastine and GTP to tubulin
- inhibition of radiolabeled GTP binding to tubulin ([14]; 5 μM): 17%
- inhibition of radiolabeled GTP binding to tubulin ([14]; 10 μM): 51%
- inhibition of nucleotide exchange, comparison (in words) ([14]; 5 and 10 μM, comparator not given): superior as an inhibitor of nucleotide exchange
- cure rate [15]: 18%
- life extension of those not cured [15]: 220%
- survival rate [15]: 100%
